Measured values: the supplement of paper PMC10627819

Tests used:
Assay in all cases: fitness (endpoint OD595 vs no drug) (fraction); higher = more growth
B. subtilis 168 = test system: B. subtilis 168
Method in brief: (§1)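 Fitness was defined as the optical density at the transition into stationary phase relative to the robust mean of no-drug control wells. Values were capped at 1. Cultures were started at OD595 0.01 in 384-well plates (30 µl, or 55 µl for S. pneumoniae) in TSB, LB Lennox or CY at 37 °C. OD595 was recorded every 30 min over 14 h, with the first reading subtracted as background.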

S. aureus Newman = test system: S. aureus Newman
Method in brief: as §1

S. aureus DSM 20231 = test system: S. aureus DSM 20231
Method in brief: as §1

S. pneumoniae D39V = test system: S. pneumoniae D39V
Method in brief: as §1

O=C(O)c1cn(C2CC2)c2cc(N3CCNCC3)c(F)cc2c1=O [Ciprofloxacin] + N[C@@H]1CONC1=O [Cycloserine D]
fitness
Details | partner 0.125 µg/mL | partner 0.25 µg/mL | partner 0.375 µg/mL | partner 0.5 µg/mL | partner 0.75 µg/mL | partner 1.5 µg/mL
B. subtilis 168, first compound 0.0098 µg/mL | 0.891 | 0.85 | – | 0.901 | – | –
B. subtilis 168, first compound 0.0195 µg/mL | 0.684 | 0.653 | – | 0.679 | – | –
B. subtilis 168, first compound 0.039 µg/mL | 0.144 | 0.0682 | – | 0.12 | – | –
S. aureus Newman, first compound 0.0375 µg/mL | – | – | 0.7 | – | 0.682 | 0.689
S. aureus Newman, first compound 0.15 µg/mL | – | – | 0.0749 | – | 0.0416 | 0.047

CC(=O)Oc1ccccc1C(=O)O [Acetylsalicylic acid] + COc1cc(Cc2cnc(N)nc2N)cc(OC)c1OC [Trimethoprim]
fitness, S. aureus DSM 20231
Details | partner 0.125 µg/mL | partner 0.25 µg/mL | partner 0.5 µg/mL | partner 1 µg/mL
first compound 250 µg/mL | 0.582 | 0.516 | 0.225 | 0.0606
first compound 500 µg/mL | – | – | 0.276 | 0.0647
first compound 1000 µg/mL | 0.4 | – | 0.23 | 0.0318

CN(C)[C@@H]1C(O)=C(C(N)=O)C(=O)[C@@]2(O)C(O)=C3C(=O)c4c(O)ccc(Cl)c4[C@@](C)(O)[C@H]3C[C@@H]12 [Chlortetracycline] + CCCCCCCCCC(=O)N[C@@H]1[C@H]([C@@H]([C@H](O[C@H]1OC2=C3C=C4C=C2OC5=C(C=C(C=C5)[C@H]([C@H]6C(=O)N[C@@H](C7=C(C(=CC(=C7)O)OC8[C@H]([C@H]([C@@H]([C@H](O8)CO)O)O)O)C9=C(C=CC(=C9)[C@H](C(=O)N6)NC(=O)[C@@H]4NC(=O)[C@@H]1C2=CC(=CC(=C2)OC2=C(C=CC(=C2)[C@H](C(=O)N[C@H](CC2=CC(=C(O3)C=C2)Cl)C(=O)N1)N)O)O)O)C(=O)O)O[C@H]1[C@@H]([C@H]([C@@H]([C@H](O1)CO)O)O)NC(=O)C)Cl)CO)O)O [Teicoplanin]
S. aureus DSM 20231, first compound 0.006 µg/mL, one replicate, main component drawn
Details | fitness
partner 0.1562 µg/mL | 0.707
partner 0.3125 µg/mL | 0.905
partner 0.625 µg/mL | 0.997

fitness, S. aureus DSM 20231, main component drawn
Details | partner 0.1562 µg/mL | partner 0.3125 µg/mL | partner 0.625 µg/mL
first compound 0.012 µg/mL | 0.656 | – | 0.756
first compound 0.048 µg/mL | 0.0926 | 0.0866 | 0.0794

O=C(O)c1cn(C2CC2)c2cc(N3CCNCC3)c(F)cc2c1=O [Ciprofloxacin] + O=C(O)[C@H]1/C(=C/CO)O[C@@H]2CC(=O)N21 [Clavulanic acid]
Details | fitness
B. subtilis 168, first compound 0.0098 µg/mL, partner 1.5 µg/mL | 0.912
B. subtilis 168, first compound 0.0098 µg/mL, partner 3 µg/mL | 0.85
B. subtilis 168, first compound 0.0098 µg/mL, partner 6 µg/mL | 0.717
B. subtilis 168, first compound 0.0195 µg/mL, partner 1.5 µg/mL | 0.758
B. subtilis 168, first compound 0.0195 µg/mL, partner 3 µg/mL | 0.643
B. subtilis 168, first compound 0.039 µg/mL, partner 1.5 µg/mL | 0.151
B. subtilis 168, first compound 0.039 µg/mL, partner 3 µg/mL | 0.0402
B. subtilis 168, first compound 0.039 µg/mL, partner 6 µg/mL | 0.0214
S. pneumoniae D39V, first compound 0.125 µg/mL, partner 0.5 µg/mL | 0.957
S. pneumoniae D39V, first compound 0.125 µg/mL, partner 1 µg/mL | 0.913
S. pneumoniae D39V, first compound 0.125 µg/mL, partner 2 µg/mL | 0.796
S. pneumoniae D39V, first compound 0.25 µg/mL, partner 0.5 µg/mL | 0.806
S. pneumoniae D39V, first compound 0.25 µg/mL, partner 1 µg/mL | 0.788

fitness, S. aureus Newman, one replicate
Details | first compound 0.078 µg/mL | first compound 0.156 µg/mL | first compound 0.312 µg/mL
partner 0.03125 µg/mL | 0.709 | 0.283 | 0.143
partner 0.0625 µg/mL | 0.695 | 0.216 | 0.0875
partner 0.125 µg/mL | 0.699 | 0.211 | 0.116

COc1cccc2c1C(=O)c1c(O)c3c(c(O)c1C2=O)C[C@@](O)(C(=O)CO)C[C@@H]3O[C@H]1C[C@H](N)[C@H](O)[C@H](C)O1 [Doxorubicin] + CC1=C(C(=O)O)N2C(=O)[C@@H](NC(=O)[C@H](N)c3ccccc3)[C@H]2SC1 [Cephalexin]
fitness
Details | first compound 0.25 µg/mL | first compound 0.5 µg/mL | first compound 0.625 µg/mL | first compound 1 µg/mL | first compound 1.25 µg/mL | first compound 2.5 µg/mL
B. subtilis 168, partner 0.125 µg/mL | – | – | 0.917 | – | 0.897 | 0.733
B. subtilis 168, partner 0.25 µg/mL | – | – | 0.964 | – | 0.89 | 0.68
B. subtilis 168, partner 0.5 µg/mL | – | – | 0.969 | – | 0.941 | 0.655
S. aureus Newman, partner 0.25 µg/mL | – | – | 0.771 | – | 0.824 | 0.744
S. aureus Newman, partner 0.5 µg/mL | – | – | 0.844 | – | 0.834 | 0.758
S. aureus Newman, partner 1 µg/mL | – | – | 0.823 | – | 0.861 | 0.83
S. pneumoniae D39V, partner 2 µg/mL | 0.0496 | 0.0845 | – | 0.105 | – | –
S. pneumoniae D39V, partner 4 µg/mL | 0.0361 | 0.0467 | – | 0.0242 | – | –

fitness, one replicate
Details | first compound 0.25 µg/mL | first compound 0.5 µg/mL | first compound 0.625 µg/mL | first compound 1 µg/mL | first compound 1.25 µg/mL | first compound 2.5 µg/mL
B. subtilis 168, partner 1 µg/mL | – | – | ≥ 1 | – | 0.98 | 0.703
S. pneumoniae D39V, partner 0.125 µg/mL | 0.866 | 0.98 | – | 0.905 | – | –
S. pneumoniae D39V, partner 0.25 µg/mL | 0.862 | 0.876 | – | 0.861 | – | –
S. pneumoniae D39V, partner 0.5 µg/mL | 0.878 | 0.872 | – | 0.898 | – | –

CC(=O)Oc1ccccc1C(=O)O [Acetylsalicylic acid] + CC[C@H]1OC(=O)[C@H](C)[C@@H](O[C@H]2C[C@@](C)(OC)[C@@H](O)[C@H](C)O2)[C@H](C)[C@@H](O[C@@H]2O[C@H](C)C[C@H](N(C)C)[C@H]2O)[C@](C)(O)C[C@@H](C)CN(C)[C@H](C)[C@@H](O)[C@]1(C)O [Azithromycin]
fitness, S. aureus DSM 20231
Details | first compound 250 µg/mL | first compound 500 µg/mL | first compound 1000 µg/mL
partner 0.125 µg/mL | 0.806 | 0.714 | 0.601
partner 0.25 µg/mL | 0.83 | 0.748 | 0.614
partner 0.5 µg/mL | 0.702 | – | 0.597
